Assay results taken from US20040235922A1, “Compositions and methods for inducing adipose tissue cell death” (priority 2003, published 2004).

Experiments:
EPI/PAR and RP fat pads = assay: EPI/PAR and RP fat pad apoptosis, % DNA fragmentation (Example 2); type: in vivo; conditions: 200 ppm in diet, 21 days, WT and GDF-8 KO mice
Description: Animals: Twelve-week old male (n=10) and female (n=10) GDF-8 (−/−) knockout mice and male (n=10) and female (n=10) GDF-8 (+/+) WT mice were used in the study. GDF-8 knockout mice, which were derived from the 129/SvJ mouse strain, were originally obtained from MetaMorphix Inc. and were bred in-house for the study. Mice were housed singly in suspended wire cages in a room maintained at 22±1 C and with a 12:12 hour light/dark cycle. Mice were provided ground rodent chow (ProLab® RMH 2500; Purina Mills, St. Louis, Mo.) and water ad libitum. Mice were cared for in accordance with the Guide for the Care and Use of Laboratory Animals.
Materials: Clenbuterol (Sigma Chemical Company, St. Louis, Mo., item# C5423), was thoroughly mixed into the ground rodent chow to provide a 200 ppm concentration.
DNA Isolation and Apoptosis Assay: DNA was isolated from fresh fat tissues and separated into two fractions: fragmented and genomic DNA. The samples were first run on an agarose gel to identify a ladder pattern of internucleosomal DNA degradation, which is characteristic of apoptosis (Qian, H., M. J. Azain, M. M. Compton, D. L. Hartzell, G. J. Hausman, and C. A. Baile, Brain administration of leptin causes deletion of adipocytes by apoptosis. Endocrinology, 1998. 139(2): p. 791-4). Apoptosis was then quantified as the ratio of fragmented- to total-DNA as previously described (Gullicksen, P. S., R. G. Dean, and C. A. Baile, Detection of DNA Fragmentation and Apoptotic Proteins, and Quantification of Uncoupling Protein Expression by Real-Time RT-PCR in Adipose Tissue. J Biochem Biophys Methods, 2004. 58(1): p. 1-13). […] DNA content was measured using PicoGreen (Molecular Probes, Inc., Eugene, Oreg.) on a SpectraMax Gemini Spectrofluorometer (Molecular Devices, Sunnyvale, Calif.). […] Apoptosis was verified by the presence of a DNA ladder pattern, which was visualized by a Fluor Chem 8000 fluorescence imaging system (Alpha Innotech, San Leandro, Calif.).
Statistical Analysis: The study was analyzed as a 2×2×2 factorial design (N=5/cell). […]

brain and liver = conditions: in vivo; cited from earlier work

## CC(C)(C)NCC(O)c1cc(Cl)c(N)c(Cl)c1 (stereo not shown) [Clenbuterol, clenbuterol]
EPI/PAR and RP fat pads
  Adipocyte apoptosis in EPI/PAR and RP fat pads compared to control: increased
EPI/PAR and RP fat pads; Mean ± SEM, control 0.9 ± 0.1
  % DNA Fragmentation EPI/PAR: 2.5 ± 0.2 %
EPI/PAR and RP fat pads; Mean ± SEM, control 0.9 ± 0.2
  % DNA Fragmentation RP: 2.5 ± 0.2 %
Brain and liver
  Apoptosis in brain and liver: protect against apoptosis
